Consider three compounds from article PMC9538480, “Rutin bioconjugates as potential nutraceutical prodrugs: An in vitro and in ovo toxicological screening” (Frontiers in Pharmacology, 2022).

Values after ≈ are worked out from the molar mass of the structure shown.

One data set concerns HaCaT. Details: method as in Carullo et al., 2019. The note with it: 1 μM; ref Carullo et al., 2019; cited from earlier work.
The test system of another data set is chorioallantoic membrane. The data set can be described thus: HET-CAM in ovo irritant potential. The note with it: 5 min after application. In kind it is in vivo, Gallus domesticus. The procedure:
To perform a toxicological screening and to verify the irritant potential of the RUT-O and RUT-L were used chicken eggs (Gallus domesticus). Specifically, the eggs were prepared as follows: 1) after being washed and disinfected with 70% ethanol (v/v), the eggs were placed in an incubator in a horizontal posture; 2) on the fourth day of incubation, a small hole was made through which a volume of approximately 7–8 ml of albumen was extracted in order to facilitate the detachment of the chorioallantoic membrane from the inner shell of the egg; 3) on the fifth day of incubation, a window was cut in the upper part of the egg to allow the visualization of the blood vessels, which was then covered with adhesive tape and the eggs were placed in the incubator until the day of the beginning of the experiment. Using the Hen’s Egg Test—Chorioallantoic Membrane (HET-CAM) assay, the potential in ovo toxicity of the samples was evaluated. […] [Kis et al., 2022]). […] In order to observe any vascular effects, a stereomicroscope (Discovery 8 Stereomicroscope Zeiss, Göttingen, and Germany) was used, and images were taken with a Zeiss Axio CAM 105 color camera before and 5 min after the application of the samples. The same experimental protocol was applied for the parent compounds—RUT, OA, and LA.

Data set [1] relates to H9c2(2-1), HaCaT, and HepaRG cells. In kind it is cell-based. Particulars: 100 µM, 24 h; for impact on cells' adherence or confluency: compared to control cells. The procedure: To verify the impact of PCs (RUT, OA and LA) and REs (RUT-O and RUT-L) on the morphology and confluence of H9c2(2-1), HaCaT, and HepaRG cells, a microscopic examination was performed. The cells were observed under bright field illumination and photographed at the end of the 24 h treatment period using Cytation 1 (BioTek Instruments Inc., Winooski, VT, United States). The photographs were processed using the Gen5™ Microplate Data Collection and Analysis Software (BioTek Instruments Inc., Winooski, VT, United States).

Data set [2] deals with H9c2(2-1) cells. The experiment in a line: in vitro. Particulars: H9c2(2-1), 24 h. In kind it is cell-based, rat. As for the experimental part: (§1) To evaluate the in vitro effect of rutin esters (REs) on cells’ viability, the MTT technique was applied following a 24 h treatment of H9c2(2-1), HepaRG, and HaCaT cells with RUT-O and RUT-L (1, 10, 25, 50, and 100 µM). The parent compounds (PCs)—RUT, OA, and LA were also tested. DMSO was used as solvent for all test compounds (RUT, OA, LA, RUT-O, and RUT-L). The impact of DMSO at tested concentrations (1, 10, 25, 50, and 100 µM) was also assessed in vitro. At the end of the treatment, fresh media (100 µl) and the MTT reagent (10 µl) were added in each well, and the plates were incubated for 3 h at 37°C. The final steps were as follows: addition of the solubilization solution (100 µl/well), incubation of the plates at room temperature for 30 min, protected from light, and absorbance measurement at two wavelengths (570 and 630 nm) using Cytation 5 (BioTek Instruments Inc., Winooski, VT, United States). The results were expressed as percentage (%) of viable cells normalized to control cells (unstimulated cells).

The subject of data set [3] is HaCaT cells. In kind it is cell-based, human. Particulars: 1-100 µM, 24 h. The procedure: as §1
Data set [4] deals with H9c2(2-1) cells. The experiment in a line: Wound healing (scratch) assay. In kind it is cell-based, rat. Particulars: 25 µM, 24 h, control 45.71%. The procedure: (§2) The influence of RUT-O and RUT-L on the migration of cells was assessed by performing the wound healing (scratch) assay. In brief, the cells (10^5 cells/ml/well) were cultured in 24-well plates (Corning Costar), and an automatic scratch was made in each well by using the AutoScratchTM Wound Making Tool provided by BioTek® Instruments Inc. (Winooski, VT, United States). The cells were further treated with the flavonoid esters at the concentration of 25 μM for 24 h, and representative images of the wound area were taken at 0 and 24 h using Cytation 1 (BioTek® Instruments Inc., Winooski, VT, United States). The wound widths were measured using Gen5 TM Microplate Data Collection and Analysis Software (BioTek® Instruments Inc., Winooski, VT, United States). The effects on cell migration were quantified by calculating the wound healing rates (%) using a formula presented in our previous studies ([[…] et al., 2020]).

Data set [5] deals with H9c2(2-1) cells. In kind it is cell-based, rat. The note with it: 100 µM, 24 h, Hoechst 33342. As for the experimental part: (§3) The potential toxicity of 100 μM RUT, OA, LA, RUT-O, and RUT-L at nuclear level was tested by applying the Hoechst 33342 staining assay protocol according to the manufacturer’s (Thermo Fisher Scientific, Inc., Waltham, MA, United States) recommendations. In brief, H9c2(2-1), HepaRG, and HaCaT cells were seeded in 12-well plates (10^5 cells/1.5 ml/well) and treated with the test compounds for 24 h. After the stimulation period, the media was removed, and the staining solution diluted 1:2000 in PBS was added (500 µl/well). The plates were incubated for 10 min at room temperature, protected from light. Finally, the staining solution was washed with PBS and the pictures were taken using Cytation 1 (BioTek Instruments Inc., Winooski, VT, United States) and analyzed by the means of Gen5™ Microplate Data Collection and Analysis Software (BioTek Instruments Inc., Winooski, VT, United States). Staurosporine (STP) 5 µM was selected as positive control for apoptosis.

Data set [6] deals with HaCaT cells. In kind it is cell-based, human. The note with it: 100 µM, 24 h, Hoechst 33342. As for the experimental part: as §3
The next data set has as its system HepaRG cells. In kind it is cell-based, human. The note with it: 100 µM, 24 h, Hoechst 33342. The procedure: as §3
Data set [7] has as its system HaCaT cells. Details: method as in Deepika et al., 2019. The note with it: ref Deepika et al., 2019; cited from earlier work.
Data set [8] relates to HaCaT cells. The data set can be described thus: Wound healing (scratch) assay. Particulars: 25 µM, 24 h. In kind it is cell-based, human. As for the experimental part: as §2
In the next data set the test system is HUVEC endothelial cells. The note with it: ref Lu et al., 2010; cited from earlier work.
A short description of data set [9]: in vitro. In kind it is cell-based, human. Particulars: human. The procedure:
as §1

A short description of data set [10]: in vitro. In kind it is cell-based, rat. Particulars: rat. The procedure: as §1
The test system of data set [11] is trophoblast-like Swan71 cells. Details: method as in Shrestha et al., 2019. Particulars: 24 h of treatment, ref Shrestha et al., 2019; cited from earlier work.
Where [12] appears, read: lowest concentrations (1 and 10 µM).

Take `CCCCCCCC/C=C\CCCCCCCC(=O)Oc1c(-c2ccc(O)c(O)c2)oc2cc(O)cc(O)c2c1=O` [Quercetin-3-oleate]: the “stimulation of HaCaT wound healing” value in the data set on HaCaT is given as “up to 51%”.
As for `C[C@@H]1O[C@@H](OC[C@H]2O[C@@H](Oc3c(-c4ccc(O)c(O)c4)oc4cc(O)cc(O)c4c3=O)[C@H](O)[C@@H](O)[C@@H]2O)[C@H](O)[C@H](O)[C@H]1O` [RUT, Rutin], in the data set on chorioallantoic membrane, the “vascular irritation signs (hemorrhage, lysis, coagulation) in words” value is “No signs of vascular irritation”. For the same compound, the “impact on cells' adherence or confluency” value in data set [1] is given as “no negative impact”. Moreover, the “effect on cell viability” value with H9c2(2-1) cells [2] (highest concentrations (50 and 100 µM)) is reported as “did not decrease cells viability”; in the data set on H9c2(2-1) cells [2] (setting [12]), “stimulatory effect”; in the data set with HaCaT cells [3], “not affected”. This compound registered a wound healing rate with H9c2(2-1) cells [4] of 37.73%. Further, the nuclear morphology changes entry in the data set on H9c2(2-1) cells [5], in the data set with HaCaT cells [6] and with HepaRG cells was “no significant nuclear alterations” in each case. The “IC50, inhibitory effect on HaCaT cells' growth” value in the data set with HaCaT cells [7] was 60 µg/mL (≈ 98.3 µM). For the same compound, in the data set with HaCaT cells [8], the “effect on wound regeneration” value is “no impact on wound regeneration”.
Regarding `CCCCC/C=C\C/C=C\CCCCCCCC(=O)O` [LA, linoleic acid], the “vascular irritation signs (hemorrhage, lysis, coagulation) in words” value with chorioallantoic membrane is given as “No signs of vascular irritation”. The “concentrations suppressing HUVEC endothelial cells growth” value in the data set with HUVEC endothelial cells is on record as “higher than 300 µM”. For the same compound, in [1] (bright field), the “round cells floating in the culture medium” value is on record as “several round cells floating in the culture medium”. Moreover, the “impact on cells' adherence or confluency” value in [1] is given as “no negative impact”. Moreover, the viability – broadly, a per cent measure of how many cells are alive, often set against a control – at 24 h, 100 µM in “in vitro [9]” was 86.9%; in “in vitro [10]” it was 84.2%. The viability at 24 h, 50 µM in the data set “in vitro [10]” was 87.2%. Besides, the “effect on cell viability” value with H9c2(2-1) cells [2] (setting [12]) was “stimulatory effect”. The nuclear morphology changes result in the data set with H9c2(2-1) cells [5], in the data set on HaCaT cells [6] and in the data set on HepaRG cells was “no significant nuclear alterations” in each case. Also, the “decrease in the viability compared to vehicle control” value in data set [11] is on record as 10%.
